In this experiment the test system is THP-1 viability, CellTiter-Glo luminescence, 72 h. The experiment is described as follows: THP-1 cell cytotoxicity, dose response, cytotoxicity control for Salmonella PhoP regulon inhibitors, S. typhimurium screen hits (AID 2253).
By EC50 is commonly meant the concentration needed to bring the measured effect to its halfway point. As to `CC[C@H]1OC(=O)C[C@@H](O)[C@H](C)[C@@H](O[C@@H]2O[C@H](C)C[C@H](N(C)C)[C@H]2O)[C@@H](CC=O)C[C@@H](C)C(=O)C=C[C@]2(C)O[C@H]2[C@@H]1C`, the concentration giving a half-maximal response (EC50) is 11.9 µM.

`CN(C)C=NC(=O)c1[nH]c2ccc(Cl)cc2c1-c1ccccc1`: the concentration giving a half-maximal response (EC50) was 13.6 µM.

Consider `CCOC(=O)N1CCN(S(=O)(=O)c2ccc(C(=O)NNc3nc4c(C)cc(C)cc4s3)cc2)CC1`, for which the EC50 is 3.28 µM. The same measure for `O=C(Oc1c(CN2CCOCC2)cc(Cl)c2cccnc12)c1ccc(F)cc1`: 7.06 µM; for `O=C1/C(=C/c2ccccc2)NC(=S)N1C(c1ccccc1)c1ccccc1`: 4.48 µM. On to `O=C(N/N=C/c1cccc([N+](=O)[O-])c1O)c1cccs1`, for which the EC50 was 13.4 µM. The same measure for `CNC[C@H](Cc1ccccc1)NC[C@@H](Cc1cccc2ccccc12)NCCc1ccc(C)cc1`: 4.75 µM; for `O=C(CSCc1ccccc1)N/N=C/c1ccccc1OCc1ccccc1`: 46.6 µM. To `CCc1ccc(-c2nn(-c3ccccc3)cc2CSC(=N)N)cc1` belongs 6.52 µM; to `Clc1ccc(OCCN2CCN(c3ncnc4sccc34)CC2)cc1`, under 0.1 µM. To `CCN1/C(=C/C(C)=C/c2sc3ccccc3[n+]2CC)Sc2ccccc21` belongs 13.6 µM; to `O=C(NCc1ccco1)c1cccc(Nc2nc3ccc(Br)cc3[nH]2)c1`, 44.6 µM. For `COc1ccc(/C=C/c2nc3ccccc3n2Cc2ccccc2OC)cc1`, the EC50 is 13.2 µM. To `COc1ccc(-n2c(CNc3ccc(C)cc3)nnc2SCc2ccccc2)cc1` belongs 33.3 µM; to `COC(=O)c1ccc(Nc2cc(C)nc3ccccc23)cc1`, 6.32 µM. The same measure for `Cc1onc(-c2ccccc2)c1C(=O)NC(=S)NNC(=O)c1ccc(O)cc1O`: 1.87 µM; for `CCCC(=O)NC(c1ccc(N(C)C)cc1)c1ccc2cccnc2c1O` (stereo unspecified): 0.61 µM; for `CC1CCN(c2ccc(NC(=S)NC(=O)c3ccc(-c4cccc([N+](=O)[O-])c4)o3)cc2)CC1`: 23.1 µM. For the molecule `O=C(Nc1ccccc1)Nc1ccc(Cl)c([N+](=O)[O-])c1`, the half-maximal effective concentration (EC50) is 14.2 µM.

With `N#CC1=C(N)Oc2c(O)cc3ccccc3c2C1c1ccsc1` (stereo unspecified), the concentration for a half-maximal effect (EC50) was 21.3 µM. To `CN1CCc2c(sc(NC(=O)c3ccc([N+](=O)[O-])o3)c2C(N)=O)C1` belongs 0.61 µM; to `Oc1ccc(CNc2ccccc2F)c2cccnc12`, 4.93 µM; to `Cc1cc(-c2csc(N)n2)c(C)n1-c1ccccc1`, 16.9 µM. As for `Cc1cccc(C)c1NC(=O)CCCSc1nnc(-c2ccc(Cl)cc2)n1-c1ccccc1`, the EC50 is 27.6 µM. As to `CCCCCCCCn1c2c(c(=N)c3c1CCC3)CCCC2`, the EC50 is 0.78 µM. To `Nc1ncn([C@@H]2O[C@H](CO)[C@@H](O)[C@H]2O)c(=O)n1` belongs 17.4 µM. To `COc1cccc(C(=O)Oc2c(CN3CCOCC3)cc(Cl)c3cccnc23)c1` belongs 7.11 µM; to `Cc1nc2c(=O)n(C)c(=O)n(C)c2nc1Cl`, 7.48 µM; to `Oc1cccc(Nc2nc(NCC3CCCO3)c3ccccc3n2)c1` (stereo unspecified), 2.26 µM.

In the case of `O=C(N/N=C\c1cccc([N+](=O)[O-])c1O)C1COc2ccccc2O1` (stereo unspecified), the EC50 is 21.5 µM.

Regarding `OC(CNCCc1ccccc1)COc1ccc(OCC(O)CNCCc2ccccc2)cc1` (stereo unspecified), the half-maximal effective concentration (EC50) was 6 µM.

As for `CCc1ccc(NC(=O)C[n+]2cc(-c3ccc(C)cc3)n3c2CCC3)cc1`, the concentration for a half-maximal effect (EC50) is 5.74 µM. The same measure for `Cc1ccc(S(=O)(=O)Nc2cc(Cl)c(O)c3ncccc23)cc1`: 1.55 µM; for `Nc1c(C(=O)NCCc2ccc(Cl)cc2)sc2ccc(S(=O)(=O)N3CCCCC3)cc12`: 31.5 µM. The same measure for `C#CCOCCOCCOCCNc1nc(N2CCN(C(=O)CCCCCCCCCCNC(=O)[C@H](CCCCN)n3cc(C[C@@H](C)CC)nn3)CC2)nc(N2CCN(C(=O)CCCCCCCCCCNC(=O)[C@H](CCCN=C(N)N)n3cc(C[C@@H](C)CC)nn3)CC2)n1`: 3.88 µM; for `O=C1C=C(N2CCOCC2)c2ccccc2C1=O`: 6.88 µM.
